Measured values from patent US10342776B2, “Compositions and methods for controlling infections” (priority 2004, dated 2019).

Tests used:
Penicillium fungi = assay: Mycelium formation on Todd Hewitt agar plates containing GML, Penicillium; format: cell-based; conditions: for mycelium growth on plates: 36 hours, room temperature
Method: (§1) Organisms (at the spore phase) of Aspergillus and Penicillium fungi obtained from nature were separately streaked on Todd Hewitt agar plates containing various concentrations of GML. The plates were incubated at room temperature for 36 hours after which mycelium growth was determined by direct visual examination. […] In contrast, the organisms grew on plates containing 0 and 50 μg/ml.

[1] = test system: Candida albicans (11 clinical isolates, hyphal phase); assay: Hyphal phase Candida albicans growth on Todd Hewitt agar plates containing GML; format: cell-based; conditions: 48 hours
Method: Candida albicans microorganisms were cultured on a Todd Hewitt agar plate for 48 hours at 37° C. in the presence of 7% CO2 to promote growth of hyphal forms. This plate was used to streak the microorganisms for isolation on Todd Hewitt agar plates containing 0, 10, 20, 50, or 100 μg/mL of GML. The plates were incubated for 48 hours and examined for Candida growth. The experiment was done in duplicate plates. The results obtained with duplicate plates were the same.
Organisms (at the hyphal phase) of 11 clinical isolates of Candida albicans were separately streaked on Todd Hewitt agar plates containing various concentrations of GML. The experiments were performed in duplicate. […] In contrast, the organisms grew on plates containing 0, 10 and 20 μg/ml.

Gardnerella vaginalis = assay: G. vaginalis growth on chocolate agar plates with GML; format: cell-based; conditions: 24 hours
Method: (§2) Cells (1.2×10^7/ml in a total volume of 25 ml of dialyzable beef heart medium) of a recent clinical isolate of the gram negative rod Gardnerella vaginalis in vitro were cultured for various lengths of time with various concentrations of GML. At the various time points, the concentration of bacteria in the cultures were determined by colony counting on chocolate agar plates. GML at concentrations as low as 5 μg/ml were bactericidal to G. vaginalis. […] This finding points to the likely efficacy of GML in vivo. Moreover, GML (5 μg/ml or greater) inhibited growth of G. vaginalis plated (0.1 ml at 1.2×10^7/ml) onto chocolate agar plates (Table 3; data obtained after 24 hours of culturing).

[2] = test system: Gardnerella vaginalis (clinical isolate); assay: G. vaginalis liquid culture in dialyzable beef heart medium with GML, colony counting; format: cell-based
Method: as §2

Salmonella = assay: Direct toxicity of GML to Salmonella; format: cell-based
Excerpt: (§3) Thus, it was surprising to discover that a number of other bacterial genera (see below) were highly sensitive to the direct toxic effects of GML.

Haemophilus influenzae = assay: Kinetic study of Haemophilus influenzae growth in Todd Hewitt medium with GML, CFU/ml; format: cell-based; conditions: GML 50 μg/ml or 100 μg/ml; liquid culture up to 24 hours
Method: The strain was inoculated (at a concentration of 1.2×10^6 CFU/ml) into 50 ml of Todd Hewitt medium containing various concentrations of GML. The cultures were grown for 24 hours in an atmosphere of 7% carbon dioxide (balance air) with shaking at 100 RPM. At designated times samples were removed, and colony forming units (CFU) per milliliter were determined by plate counts on chocolate agar plates.

[3] = test system: Lactobacillus (L. crispatis); assay: In vitro growth of L. crispatis bacteria with GML; format: cell-based
Excerpt: as §3

Staphylococcus aureus = conditions: earlier work, U.S. application Ser. No. 10/986,512; cited from earlier work
[4] = test system: Bacteroides fragilis ATCC 25285; assay: Kinetics of growth inhibition of Bacteroides fragilis in WC broth with GML, plate colony counting; format: cell-based
Method: The kinetics of growth-inhibition by GML of the obligate gram negative anaerobe Bacteroides fragilis ATCC 25285 was determined. An overnight culture of B. fragilis ATCC 25285 in Wilkens Chalgren (WC) broth was inoculated into fresh media (WC) to give a starting cell concentration of 1×10^7 cells/ml. […] […] Because growth of B. fragilis was inhibited by GML, it is expected that growth of the related gram negative anaerobe, Prevotella, would also be inhibited by GML.

Escherichia coli = assay: Direct toxicity of GML to Escherichia coli; format: cell-based
Excerpt: as §3

[5] = test system: Haemophilus influenzae (two clinical isolates); assay: Haemophilus influenzae growth on chocolate agar plates with GML; format: cell-based
Method: G. vaginalis was formerly designated Haemophilus vaginalis. This consideration raised the possibility that GML would inhibit the growth of Haemophilus influenzae. Two recent clinical isolates of encapsulated (capsule type not typable) Haemophilus influenzae (0.1 ml at 1.0×10^7/ml plated) organisms were tested for ability to grow on chocolate agar plates with no or various concentrations of GML (Table 4; data obtained after 24 of culture). The growth of both strains was inhibited at GML concentrations of 10 μg/ml or greater.

Aspergillus fungi = assay: Mycelium formation on Todd Hewitt agar plates containing GML, Aspergillus; format: cell-based; conditions: for mycelium growth on plates: 36 hours, room temperature
Method: as §1

[6] = 50 μg/ml GML, about 4 days compared to 36 hours
[7] = 100 and 500 μg/ml GML, about 4 days
[8] = GML concentrations up to 100 μg/ml

Structure (SMILES): CCCCCCCCCCCC(=O)OCC(O)CO (stereo not drawn) [GML, glycerol monolaurate]
- mycelium growth on plates (Penicillium fungi; 50 μg/ml GML): grew
- colony size on plates (Penicillium fungi; [6]): larger in size
- mycelium growth on plates (Penicillium fungi; 100 and 500 μg/ml GML): failed to grow
- visible colonies on plates (Penicillium fungi; [7]): no visible colonies
- growth on agar plates ([1]; 10 and 20 μg/ml GML): grew
- growth on agar plates ([1]; 50 and 100 μg/ml GML): failed to grow
- GML concentration that inhibited growth of G. vaginalis (Gardnerella vaginalis): ≥ 5 µg/mL
- Growth Characteristics (Gardnerella vaginalis; GML 1 μg/ml): Confluent growth
- Growth Characteristics (Gardnerella vaginalis; GML 5 μg/ml): No visible growth
- Growth Characteristics (Gardnerella vaginalis; GML 10 μg/ml): No visible growth
- Growth Characteristics (Gardnerella vaginalis; GML 20 μg/ml): No visible growth
- Growth Characteristics (Gardnerella vaginalis; GML 50 μg/ml): No visible growth
- Growth Characteristics (Gardnerella vaginalis; GML 100 μg/ml): No visible growth
- Cells/ml (×10^7) at 6 hours ([2]; GML 1 μg/ml): 13 Cells/ml (×10^7)
- Cells/ml (×10^7) at 24 hours ([2]; GML 1 μg/ml): 208 Cells/ml (×10^7)
- Cells/ml (×10^7) at 6 hours ([2]; GML 5 μg/ml): 0.0002 Cells/ml (×10^7)
- Cells/ml (×10^7) at 24 hours ([2]; GML 5 μg/ml): 0.0004 Cells/ml (×10^7)
- Cells/ml (×10^7) at 6 hours ([2]; GML 10 μg/ml): <0.000001 Cells/ml (×10^7)
- Cells/ml (×10^7) at 24 hours ([2]; GML 10 μg/ml): <0.000001 Cells/ml (×10^7)
- Cells/ml (×10^7) at 6 hours ([2]; GML 20 μg/ml): <0.000001 Cells/ml (×10^7)
- Cells/ml (×10^7) at 24 hours ([2]; GML 20 μg/ml): <0.000001 Cells/ml (×10^7)
- Cells/ml (×10^7) at 6 hours ([2]; GML 50 μg/ml): <0.000001 Cells/ml (×10^7)
- Cells/ml (×10^7) at 24 hours ([2]; GML 50 μg/ml): <0.000001 Cells/ml (×10^7)
- Cells/ml (×10^7) at 6 hours ([2]; GML 100 μg/ml): <0.000001 Cells/ml (×10^7)
- Cells/ml (×10^7) at 24 hours ([2]; GML 100 μg/ml): <0.000001 Cells/ml (×10^7)
- Cells/ml (×10^7) at 6 hours ([2]; GML 1000 μg/ml): <0.000001 Cells/ml (×10^7)
- Cells/ml (×10^7) at 24 hours ([2]; GML 1000 μg/ml): <0.000001 Cells/ml (×10^7)
- GML concentration bactericidal to G. vaginalis ([2]; liquid culture): ≥ 5 µg/mL
- resistance to direct toxicity by GML (Salmonella): relatively resistant
- growth of H. influenza organisms (Haemophilus influenzae): inhibited the growth
- resistance to direct toxicity by GML [3]: relatively resistant
- effect on in vitro growth ([3]; GML concentrations up to 50 μg/ml): had no effect
- effect on in vitro growth [3, 8]: delayed (but did not stop) its growth
- effect on stationary phase survival [3, 8]: extended their stationary phase survival
- resistance to direct toxic effects of GML (Staphylococcus aureus): relatively resistant
- Cells/ml ×10^7 at 4.5 hours ([4]; GML 1 μg/ml, 4.5 hours): 16 Cells/ml ×10^7
- Cells/ml ×10^7 at 25 hours ([4]; GML 1 μg/ml): 130 Cells/ml ×10^7
- Cells/ml ×10^7 at 4.5 hours ([4]; GML 10 μg/ml, 4.5 hours): 1.4 Cells/ml ×10^7
- Cells/ml ×10^7 at 25 hours ([4]; GML 10 μg/ml): 150 Cells/ml ×10^7
- Cells/ml ×10^7 at 4.5 hours ([4]; GML 20 μg/ml, 4.5 hours): <0.01 Cells/ml ×10^7
- fold fewer bacteria than the control culture ([4]; GML 20 μg/ml, 4.5 hours): at least 1,000 fold
- regrowth of culture ([4]; GML 20 μg/ml, 24 hours): regrowth was observed
- Cells/ml ×10^7 at 25 hours ([4]; GML 20 μg/ml): 200 Cells/ml ×10^7
- Cells/ml ×10^7 at 4.5 hours ([4]; GML 50 μg/ml, 4.5 hours): <0.01 Cells/ml ×10^7
- Cells/ml ×10^7 at 25 hours ([4]; GML 50 μg/ml): <10 Cells/ml ×10^7
- Cells/ml ×10^7 at 4.5 hours ([4]; GML 100 μg/ml, 4.5 hours): <0.001 Cells/ml ×10^7
- Cells/ml ×10^7 at 25 hours ([4]; GML 100 μg/ml): <10 Cells/ml ×10^7
- growth of B. fragilis bacteria ([4]; GML 50 and 100 μg/ml): inhibited the growth
- resistance to direct toxicity by GML (Escherichia coli): relatively resistant
- Growth Characteristics (Strain 1) ([5]; GML 1 μg/ml): Confluent growth
- Growth Characteristics (Strain 2) ([5]; GML 1 μg/ml): Confluent growth
- Growth Characteristics (Strain 1) ([5]; GML 5 μg/ml): Confluent growth
- Growth Characteristics (Strain 2) ([5]; GML 5 μg/ml): Confluent growth
- Growth Characteristics (Strain 1) ([5]; GML 10 μg/ml): No visible growth
- Growth Characteristics (Strain 2) ([5]; GML 10 μg/ml): No visible growth
- Growth Characteristics (Strain 1) ([5]; GML 20 μg/ml): No visible growth
- Growth Characteristics (Strain 2) ([5]; GML 20 μg/ml): No visible growth
- Growth Characteristics (Strain 1) ([5]; GML 50 μg/ml): No visible growth
- Growth Characteristics (Strain 2) ([5]; GML 50 μg/ml): No visible growth
- Growth Characteristics (Strain 1) ([5]; GML 100 μg/ml): No visible growth
- Growth Characteristics (Strain 2) ([5]; GML 100 μg/ml): No visible growth
- GML concentration at which growth was inhibited ([5]; both strains, chocolate agar plates): ≥ 10 µg/mL
- mycelium growth on plates (Aspergillus fungi; 50 μg/ml GML): grew
- colony size on plates (Aspergillus fungi; [6]): larger in size
- mycelium growth on plates (Aspergillus fungi; 100 and 500 μg/ml GML): failed to grow
- visible colonies on plates (Aspergillus fungi; [7]): no visible colonies
